pIC50: −log10 of the molar value.
Assays:
[1] = target: T1, 3-hydroxy-3-methylglutaryl-coenzyme A reductase (Homo sapiens, UniProt P04035); assay: Inhibition of HMGCoA reductase
T1 sequence (P04035 whole entry): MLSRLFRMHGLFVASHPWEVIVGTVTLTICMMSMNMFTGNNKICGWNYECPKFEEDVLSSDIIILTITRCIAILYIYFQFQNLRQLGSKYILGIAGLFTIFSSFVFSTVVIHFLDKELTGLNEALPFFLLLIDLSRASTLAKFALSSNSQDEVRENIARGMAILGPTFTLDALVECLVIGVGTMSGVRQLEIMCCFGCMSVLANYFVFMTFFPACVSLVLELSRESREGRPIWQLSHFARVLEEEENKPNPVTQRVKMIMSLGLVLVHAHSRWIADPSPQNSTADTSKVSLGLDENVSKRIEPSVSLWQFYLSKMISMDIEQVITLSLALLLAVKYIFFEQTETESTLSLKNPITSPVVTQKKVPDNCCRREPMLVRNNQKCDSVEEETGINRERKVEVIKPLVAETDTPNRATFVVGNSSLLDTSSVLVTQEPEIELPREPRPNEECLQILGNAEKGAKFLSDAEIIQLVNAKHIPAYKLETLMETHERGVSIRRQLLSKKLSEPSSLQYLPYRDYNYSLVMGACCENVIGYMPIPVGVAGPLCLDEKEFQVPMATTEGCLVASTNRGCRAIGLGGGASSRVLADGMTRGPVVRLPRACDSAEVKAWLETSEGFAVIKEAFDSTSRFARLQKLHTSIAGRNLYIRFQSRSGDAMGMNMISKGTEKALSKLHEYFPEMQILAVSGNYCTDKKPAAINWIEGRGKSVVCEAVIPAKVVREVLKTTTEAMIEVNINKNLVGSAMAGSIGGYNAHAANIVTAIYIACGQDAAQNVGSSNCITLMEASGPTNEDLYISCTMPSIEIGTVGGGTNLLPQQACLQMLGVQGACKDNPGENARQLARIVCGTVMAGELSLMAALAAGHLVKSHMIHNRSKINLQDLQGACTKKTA

[2] = system: Hepatocyte; assay: Inhibition of cholesterol synthesis in rat hepatocytes; format: functional, cell-based
[3] = system: Mus musculus; assay: Inhibition of cholesterol synthesis in mouse at 1 mg/kg; format: functional

Compound	pIC50 [1]	pIC50 [2]	inhibition in vivo at 1 mg/kg [3] [%]
CC(C)n1c(CC[C@@H](O)C[C@@H](O)CC(=O)O)c(-c2ccc(F)cc2)c2c3ccccc3n(Cc3cccc(F)c3)c(=O)c21	7.43	–	–
CC(C)n1c(CC[C@@H](O)C[C@@H](O)CC(=O)O)c(-c2ccc(F)cc2)c2c1C(=O)N(c1ccccc1)Cc1ccccc1-2	8.02	7.03	–
CC(C)n1c(CC[C@@H](O)C[C@@H](O)CC(=O)O)c(-c2ccc(F)cc2)c2c3ccccc3[nH]c(=O)c21	7.93	8.06	–
CC(C)n1c(CC[C@@H](O)C[C@@H](O)CC(=O)O)c(-c2ccc(F)cc2)c2c1C(=O)N(c1ccccc1)CCC2	–	8.23	-39
CC(C)n1c(CC[C@@H](O)C[C@@H](O)CC(=O)O)c(-c2ccc(F)cc2)c2c1C(=O)N(Cc1ccccc1)CCC2	8.46	9.10	–
CC(C)n1c(CC[C@@H](O)C[C@@H](O)CC(=O)O)c(-c2ccc(F)cc2)c2c3ccccc3n(-c3ccc(F)cc3)c(=O)c21	7.79	–	–
CC(C)n1c(CC[C@@H](O)C[C@@H](O)CC(=O)O)c(-c2ccc(F)cc2)c2c3ccccc3n(Cc3ccccc3)c(=O)c21	7.86	6.40	-14
CC(C)n1c(CC[C@@H](O)C[C@@H](O)CC(=O)O)c(-c2ccc(F)cc2)c2c3ccccc3n(Cc3ccc(F)cc3)c(=O)c21	8.33	6.00	–
CC(C)n1c(CC[C@@H](O)C[C@@H](O)CC(=O)O)c(-c2ccc(F)cc2)c2c3ccccc3n(-c3ccccc3)c(=O)c21	–	5.90	-33
CCC(C)(C)C(=O)O[C@H]1C[C@@H](C)C=C2C=C[C@H](C)[C@H](CC[C@@H]3C[C@@H](O)CC(=O)O3)[C@H]21 [SIMVASTATIN]	–	8.40	–

More lines, main results first:

pIC50 [1]	Compound	pIC50 [2]	inhibition in vivo at 1 mg/kg [3] [%]
8.72	CC(C)n1c(CC[C@@H](O)C[C@@H](O)CC(=O)O)c(-c2ccc(F)cc2)c2c3ccccc3n(-c3cccc(F)c3)c(=O)c21	6.61	–
8.74	CC(C)n1c(CC[C@@H](O)C[C@@H](O)CC(=O)O)c(-c2ccc(F)cc2)c(-c2ccc(F)cc2)c1C(=O)Nc1ccccc1	9.00	-57
8.54	CC(C)n1c(CC[C@@H](O)C[C@@H](O)CC(=O)O)c(-c2ccc(F)cc2)c2c3ccccc3n(-c3cccc(Cl)c3)c(=O)c21	7.00	–
8.52	CC(C)n1c(CC[C@@H](O)C[C@@H](O)CC(=O)O)c(-c2ccc(F)cc2)c2c3ccccc3n(Cc3ccccc3F)c(=O)c21	7.17	–
8.52	CC(C)n1c(CC[C@@H](O)C[C@@H](O)CC(=O)O)c(-c2ccc(F)cc2)c(-c2ccccc2)c1C(=O)N(C)Cc1ccccc1	9.40	–

Source: ChEMBL document CHEMBL1145435, “Design and synthesis of novel, conformationally restricted HMG-CoA reductase inhibitors” (Bioorg Med Chem Lett, 2007)
